The assay relates to NCI-H295R. As to the kind of experiment: IC50 (antiproliferative, ATP content). The note with it: 48 h. In short, it runs like this:
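Following overnight culture of adrenocortical carcinoma cells (1500 per well) in 1536-well plates with serum-free ITS-supplemented DMEM, library compounds were pin-transferred at 8 final concentrations from 0.6 nM to 46 µM. Incubation lasted 48 h at 37 °C, 5% CO2, and the CellTiter-Glo signal was read after 20 min at room temperature. Data were fitted with a four-parameter logistic model. Each IC50 came from that fit after normalisation to vehicle and positive-control wells, and compounds without a concentration response were reported as above the top dose.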
The IC50 is the concentration that gives 50% inhibition. Take `O=c1[n-]c(=O)n(Cl)c(=O)n1Cl.[Na+]`: the IC50 is above 46 µM. The molecule `Cl.O=C1c2cccc3c2[C@H](CCC3)CN1[C@@H]1CN2CCC1CC2` returned an IC50 above 46 µM. The figure for `OC(CCN1CCCCC1)(c1ccccc1)c1ccccc1` is above 46 µM.

Turning to `O=C(O)CCCC/C=C(\c1ccccc1)c1cccnc1`, the IC50 is above 46 µM. In the case of `O=[C@@](C)[C@@H]3[C@]2(C)[C@](CC3)([H])[C@@]1([H])[C@@](CC2)([H])[C@](CC[C@](O)(C)C4)(C)[C@@]4([H])CC1` it was above 46 µM; in that of `C[C@H](N)C(=O)N[C@@H](C)P(=O)(O)O`, above 46 µM. The figure for `COC(=O)C1=CCCN(C)C1` is above 46 µM. The figure for `CSc1ccc(C(=O)c2[nH]c(=O)[nH]c2C)cc1` is above 46 µM; for `C[C@]12CC[C@H](OS(=O)(=O)[O][Na])CC1=CC[C@@H]1[C@@H]2CC[C@]2(C)C(=O)CC[C@@H]12.O.O` it is above 46 µM; for `O=C(NCC1CCCCN1)c1cc(OCC(F)(F)F)ccc1OCC(F)(F)F` (configuration not stated) it is above 46 µM. `CCc1ccc(S(=O)(=O)O)cc1` had a 50% inhibitory concentration (IC50) above 46 µM.

As to `CC(C(=O)O)c1ccc(C(=O)c2cccs2)cc1` (configuration not stated), the concentration for half-maximal inhibition (IC50) was above 46 µM. The figure for `Cc1ccc2nc(N)[nH]c(=O)c2c1Sc1ccncc1.Cl.Cl` is above 46 µM. The figure for `CN(C)CCCOc1nn(Cc2ccccc2)c2ccccc12.Cl` is above 46 µM; for `CC(C)CCCC(C)N` (configuration not stated) it is above 46 µM. In the case of `C=O` it was above 46 µM; in that of `CN(C)[C@@H]1C(O)=C(C(N)=O)C(=O)[C@@]2(O)C(O)=C3C(=O)c4c(O)cccc4[C@@](C)(O)[C@H]3C[C@@H]12.Cl`, above 46 µM. `C[N+]1(C)CCCC(OC(=O)C(O)(c2ccccc2)c2ccccc2)C1.[Br-]` (configuration not stated) displayed a concentration for half-maximal inhibition (IC50) above 46 µM. In the case of `CC/C=C\C/C=C\C/C=C\C/C=C\C/C=C\C/C=C/CCC(=O)O` it was above 46 µM; in that of `O=C(O)/C=C/c1ccccc1`, above 46 µM. The figure for `CC[C@@H]1C(=O)OC[C@@H]1Cc1cncn1C` is above 46 µM; for `BrC2=CC=C(C=C2)[C@@H]([C@@]1=CC=CC=N1)CCN(C)C.O=C(O)/C=C\C(O)=O` it is above 46 µM. `O=C(OCc1ccccc1)c1cccnc1` showed an IC50 above 46 µM.

As to `CNC(=O)NC(O)C(Cl)(Cl)Cl` (configuration not stated), the IC50 is above 46 µM.

In the case of `Cc1ccccc1-n1c(C)nc2ccccc2c1=O`, the IC50 is above 46 µM. The figure for `C/C1=C2N=C(/C=C3N=C(/C(C)=C4\[N]([Co+][CH2][C@H]5O[C@@H](n6cnc7c(N)ncnc76)[C@H](O)[C@@H]5O)C(C(CC(N)=O)C4(C)CCC(=O)NCC(C)OP(=O)([O-])O[C@H]4[C@@H](O)[C@@H](n5cnc6cc(C)c(C)cc65)O[C@@H]4CO)C4(C)N=C1C(CCC(N)=O)C4(C)CC(N)=O)C(CCC(N)=O)C\3(C)C)C(CCC(N)=O)C/2(C)CC(N)=O` (some centres not stated) is above 46 µM; for `COC(c1ccccc1)(c1ccccc1)[C@H](Oc1nc(C)cc(C)n1)C(=O)O` it is above 46 µM.

`O=C(O)CCn1c2c(c3ccccc31)C[C@H](NS(=O)(=O)c1ccc(F)cc1)CC2` had a concentration for half-maximal inhibition (IC50) above 46 µM. The figure for `CC1CCN(CCCC(=O)c2ccc(F)cc2)CC1` is above 46 µM; for `CC(O)(P(=O)([O-])O)P(=O)([O-])O.[Na+].[Na+]` it is above 46 µM. The figure for `O=C(O)C(Cl)Cl` is above 46 µM; for `C[N+]1(C)[C@@H]2CC[C@H]1C[C@@H](OC(=O)C(CO)c1ccccc1)C2.O=[N+]([O-])[O-]` (some centres not stated) it is above 46 µM. The figure for `CC(C)CCON=O` is above 46 µM; for `Cc1ccc(Cl)c(O)c1` it is above 46 µM. Turning to `CC[C@H]1OC(=O)[C@H](C)[C@@H](O[C@H]2C[C@@](C)(OC)[C@@H](O)[C@H](C)O2)C(C)[C@@H](O[C@@H]2O[C@H](C)C[C@H](N(C)C)[C@H]2O)[C@](C)(OC)C[C@@H](C)C(=O)[C@H](C)[C@@H](O)[C@]1(C)O` (some centres not stated), the 50% inhibitory concentration (IC50) is above 46 µM. For `CC(=O)OCC(COC(C)=O)OC(C)=O`, the IC50 is above 46 µM. In turn, `COc1ccc([C@@H]2Sc3ccccc3N(CCN(C)C)C(=O)[C@@H]2OC(C)=O)cc1` gave an IC50 above 46 µM. The figure for `C[C@@H](CN(C)C)CN1c2ccccc2Sc2ccccc21.C[C@@H](CN(C)C)CN1c2ccccc2Sc2ccccc21.O=C(O)[C@@H](O)[C@@H](O)C(=O)O` is above 46 µM. In the case of `[H][C@]1(CC3)C[C@@H](OC(C(C5=CC=CC=C5)(O)C4=CC=CC=C4)=O)C[C@]3([H])[N@+]21CCCC2.[Cl-]` it was above 46 µM. For the molecule `N[C@@H](Cc1ccc(O)c(O)c1)C(=O)O`, the concentration for half-maximal inhibition (IC50) was above 46 µM. For the molecule `Cc1c(C)c2c(c(C)c1OC(=O)c1cccnc1)CC[C@@](C)(CCC[C@H](C)CCC[C@H](C)CCCC(C)C)O2`, the IC50 was above 46 µM.

For `CCCC(=O)O[C@]1(C(=O)COC(C)=O)CC[C@H]2[C@@H]3C[C@H](F)C4=CC(=O)C=C[C@]4(C)[C@@]3(F)[C@@H](O)C[C@@]21C`, the IC50 was above 46 µM. In the case of `O=C(O)Cc1nn(Cc2ccc(Br)cc2F)c(=O)c2ccccc12` it was above 46 µM; in that of `Nc1nc(N)nc(NC2CC2)n1`, above 46 µM; in that of `Oc1c(Br)cc(Br)cc1Br`, above 46 µM. The figure for `CCC(C)(S(=O)(=O)CC)S(=O)(=O)CC` is above 46 µM; for `O=c1ccn(C2OC(COP(=O)(O)OC3C(CO)OC(n4ccc(=O)[nH]c4=O)C3O)C(O)C2O)c(=O)[nH]1` (configuration not stated) it is above 46 µM. The figure for `CC(C)(C#N)c1cc(Cn2cncn2)cc(C(C)(C)C#N)c1` is above 46 µM; for `CCCCCCCCCCCCCCCC(=O)OCC(COC(=O)CCCCCCCCCCCCCCC)OC(=O)CCCCCCCCCCCCCCC` it is above 46 µM; for `CCCCCl` it is above 46 µM. Turning to `Cl.OC(CCN1CCCC1)(c1ccccc1)C1CCCCC1` (configuration not stated), the IC50 is above 46 µM.

In the case of `CN1CCN(CC(=O)N2c3ccccc3C(=O)Nc3cccnc32)CC1`, the IC50 was above 46 µM.

`O[C@H]1[C@@H]([C@H](O)CO)O[C@H]2[C@@H]1O[C@H]([C@@](Cl)(Cl)Cl)O2` gave an IC50 above 46 µM. The figure for `CC(C)C[C@@H](NC(=O)[C@@H](O)[C@H](N)Cc1ccccc1)C(=O)O.Cl` is above 46 µM; for `CNc1c2c(nn1C)CCCC2` it is above 46 µM.

As for `COc1ccc(OC)c(C(O)C(C)N)c1.Cl` (configuration not stated), the IC50 was above 46 µM.

`CC(C)=CCC1C(=O)N(c2ccccc2)N(c2ccccc2)C1=O` displayed an IC50 above 46 µM. In the case of `CC(=O)Nc1ccc(OC(=O)c2ccccc2OC(C)=O)cc1` it was above 46 µM. The figure for `CC(=O)[O][Al]([OH])[O]C(C)=O` is above 46 µM; for `CN(C)CCc1ccc(O)cc1` it is above 46 µM. In the case of `CCCCCCCCCCCCCCCC(=O)OC[C@H](COP(=O)([O-])OCC[N+](C)(C)C)OC(=O)CCCCCCCCCCCCCCC` it was above 46 µM. The molecule `Cc1cccc(Nc2cc(Cl)nc(SCC(=O)O)n2)c1C` showed an IC50 above 46 µM. In the case of `O=c1cc(O)c(Cl)c[nH]1` it was above 46 µM.

`C=C[C@H]1CN2CCC1C[C@@H]2[C@@H](O)c1ccnc2ccccc12` (some centres not stated): the IC50 is above 46 µM. As to `c1csc(C2(N3CCCCC3)CCCCC2)c1`, the IC50 is above 46 µM.

As for `COP(=S)(OC)Oc1ccc(S(=O)(=O)N(C)C)cc1`, the IC50 is above 46 µM. In the case of `Cc1cc(C(=O)O)c(C)n1-c1cccc(C(=O)O)c1.O=C1C[C@@H]2OCC=C3CN4CC[C@]56c7ccccc7N1[C@H]5[C@H]2[C@H]3C[C@H]46` it was above 46 µM; in that of `CC1Cc2ccccc2N1NC(=O)c1ccc(Cl)c(S(N)(=O)=O)c1` (configuration not stated), above 46 µM. The figure for `O=C(Cn1ccnc1[N+](=O)[O-])NCCO` is above 46 µM; for `C=C1c2c(Cl)ccc(O)c2C(=O)C2=C(O)[C@]3(O)C(=O)C(C(N)=O)=C(O)[C@@H](N(C)C)[C@@H]3[C@@H](O)[C@H]12.O=C(O)c1cc(S(=O)(=O)O)ccc1O` it is above 46 µM; for `COc1ccc2c(c1OC)C(=O)O[C@@H]2[C@H]1c2c(cc3c(c2OC)OCO3)CCN1C` it is above 46 µM. `CCCCOC(=O)c1ccc(N)cc1` displayed an IC50 above 46 µM. In the case of `O=C(CN1CCNCC1)NC1CCCCC1` it was above 46 µM; in that of `Cc1cc(NS(=O)(=O)c2ccc(N)cc2)nc(C)n1`, above 46 µM.

Molecule `CC(C)COC(=O)c1ccc(N)cc1` came in with an IC50 above 46 µM. The figure for `C[C@H](Cc1ccc(O)c(O)c1)[C@@H](C)Cc1ccc(O)c(O)c1` is above 46 µM. The figure for `CNCCCCOc1ccccc1Cc1ccccc1` is above 46 µM; for `CC(C)NCC(O)c1ccc(N)c(C#N)c1` (configuration not stated) it is above 46 µM. In the case of `Cl.O=C(COc1ccc(Cl)cc1)N1CCN(Cc2ccc3c(c2)OCO3)CC1` it was above 46 µM; in that of `C[C@]12C[C@H](O)[C@H]3[C@@H](CCC4=CC(=O)CC[C@@]43C)[C@@H]1CC[C@H]2C(=O)CO`, above 46 µM. With `NS(=O)(=O)c1ccc(NC(=O)CCC(=O)O)cc1`, the IC50 was above 46 µM.

Molecule `CC(COc1ccccc1)NC(C)C(O)c1ccc(O)cc1.Cl` (configuration not stated) registered an IC50 above 46 µM. The figure for `ClCc1ccccc1.O=C1C[C@@H]2OCC=C3CN4CC[C@]56c7ccccc7N1[C@H]5[C@H]2[C@H]3C[C@H]46` is above 46 µM. In the case of `CN(C)CCCN1c2ccccc2Sc2ccccc21.Cl` it was above 46 µM; in that of `CS(=O)(=O)c1ccc([C@@H](O)[C@@H](CF)NC(=O)C(Cl)Cl)cc1`, above 46 µM.

`CC(C)NCC(O)c1ccccc1Cl.Cl` (configuration not stated) came in with an IC50 above 46 µM. The figure for `CC(C)NC[C@@H](O)COc1cccc2ccccc12` is above 46 µM.

The values above are taken from the supplement of paper PMC3493320.
